Measurements published in patent US11278514B2, “Composition compromising dunnione as effective ingredient for prevention or alleviation of hair loss” (NADIANBIO LTD., priority 2018, dated 2022).

Assays:
NQO1 knockout mice [1] = settings: cyclophosphamide alone (150 mg/kg i.p.), until day 18
Method: (§1) The day, on which the NQO1 knockout mice were hair-removed according to Example 1, was set as day 0, and the animals were divided into the following experimental groups and used for experiments: normal group (Control, 4 animals) in which only PBS is intraperitoneally injected on day 9; cyclophosphamide group (CYP, 6 animals) in which cyclophosphamide (150 mg/kg) is intraperitoneally injected on day 9; combination-treated group (CYP+Dunnione, 6 animals) in which dunnione is orally administered on a daily basis starting from 3 days prior to treatment with cyclophosphamide; and dunnione alone-treated group (Dunnione, 4 animals) in which only dunnione (20 mg/kg) is administered (FIG. 1).

patients = settings: cancer patients; Batchelor D., Eur J Cancer Care, 2001; cited from earlier work
p53 = assay: Acetylation of p53 in skin tissue (western blot), cyclophosphamide alopecia model; type: in vivo, mice; settings: cyclophosphamide alone; day 18
Method: (§2) In the cyclophosphamide-induced alopecia mouse model of Example 2, expression level of Sirt1 protein and acetylation reaction of the target proteins thereof, NF-κB p65 and p53, were identified on the skin tissue obtained on day 18 after hair removal.
(§3) Specifically, 10 mg of the skin tissue obtained from the animal model prepared by the method in Example 2 was homogenized by addition of a lysis solution (RIPA lysis buffer). Then, centrifugation was performed at 14,000 rpm for 10 minutes. The protein concentration in the supernatant was quantified with a bovine serum albumin (BSA) standard solution. The skin tissue protein was used in an amount of 40 μg per test solution. First, the homogenized skin tissue was mixed with a sample solution (Bio-Rad, 161-0747) and inactivated at a temperature of 95° C. for 5 minutes. Thereafter, the protein was separated by a sodium dodecyl sulfate-polyacrylamide gel electrophoresis (SDS-PAGE) method, and then transferred to a nitrocellulose membrane. Treatment with anti-Sirt1 antibody (Abcam), anti-acetyl NF-κB p65 antibody and anti-acetyl p53 antibody (Cell Signaling Technologies), and anti-β-actin antibody (Santa Cruz Biotechnology) as primary antibodies were performed, and reaction was allowed to proceed. […]

Sirt1 = Sirt1 activity in skin tissue (fluorescent Sirt1 detection kit), cyclophosphamide alopecia model; type: in vivo, mice; settings: cyclophosphamide alone; day 18
Method: In addition, the skin tissue obtained from the animal model prepared by the method in Example 2 was homogenized. The homogenized skin tissue was tested with the fluorescent Sirt1 detection kit (BML-AK555-0001) of Enzo Life Sciences International, Inc. according to the instruction manual, and then Sirt1 activity was analyzed. 40 μg of the homogenized skin tissue was mixed with a reaction solution (Fluor de Lys-Sirt1, NAD+, buffer solution (25 mM Tris-HCl (pH8.0), 137 mM NaCl, 2.7 mM […], 1 mM MgCl2, and 1 mg/mL BSA)), and reaction was allowed to proceed at a temperature of 37° C. for 1 hour. Then, additional reaction was allowed to proceed for 5 minutes under a condition in which a developer is added. In order to check the final Sirt1 activity, readings were measured for the reaction solution using the CytoFluor series 4000 fluorometer (PerSeptive Biosystems, Inc., USA) with the excitation wavelength set to 360 nm and the emission to 460 nm.

NAD^+ = assay: NAD+ and NADH concentrations and NAD+/NADH ratio in skin tissue, cyclophosphamide alopecia model; type: in vivo, mice; settings: cyclophosphamide alone vs normal group; day 18
Method: Specifically, in order to quantify the NAD^+ and NADH concentrations in the skin tissue obtained from the animal model prepared by the method in Example 2, the skin tissue was tested with the analysis kit (E2ND-100) of BioAssay Systems according to the instruction manual, and then the NAD^+/NADH ratio was analyzed. First, 10 mg of skin tissue was collected from the animal model. Then, 100 μl of extraction solution for NAD^+ or NADH was added to the skin tissue and homogenized. Then, the homogenized skin tissue was subjected to heat treatment at 60° C. for 5 minutes. Neutralization was performed by addition of the same volume of the extraction solution, and then centrifugation was performed at 14,000 rpm for 5 minutes to obtain the supernatant. Then, a developing reagent was added to the supernatant. The NAD^+ and NADH concentrations were determined from the absorbance measured at a wavelength of 565 nm, and the NAD^+/NADH ratio was analyzed.

Sirt1 protein = assay: Expression level of Sirt1 protein in skin tissue (western blot), cyclophosphamide alopecia model; type: in vivo, mice; settings: cyclophosphamide alone; day 18
Method: as §2, §3

NQO1 knockout mice [2] = settings: cyclophosphamide alone, day 18
Method: as §1
(§4) The day, on which the NQO1 knockout mice were hair-removed according to Example 1, was set as day 0, and the mice in each of the experimental groups described in Example 3 were sacrificed on day 18. Subsequently, the mouse dorsal skin was dissected parallel or perpendicular to the vertebral line, and removed. The removed skin was fixed with a Bouin's solution for 12 hours, subjected to dehydration, and embedded in paraffin. Then, the resulting product was prepared into 5-μm sections. The prepared sections were subjected to hematoxylin and eosin (H&E) staining, and histological changes in the skin in each experimental group were observed.

[3] = system: C57BL/6 mice having alopecia caused by cyclophosphamide; settings: cyclophosphamide alone (150 mg/kg i.p.); day 18
Method: as §1, with “the” for “the NQO1 knockout”, “in” for “according to”, “groups:” for “experimental groups and used for experiments:”
as §4, with “the” for “the NQO1 knockout”, “in” for “according to”, “2” for “3”

NF-κB p65 = assay: Acetylation of NF-κB p65 in skin tissue (western blot), cyclophosphamide alopecia model; type: in vivo, mice; settings: cyclophosphamide alone; day 18
Method: as §2, §3

In the case of `O=P1(N(CCCl)CCCl)NCCCO1` (stereo not shown) [cyclophosphamide, reference compound], the “hair growth, visual observation of skin” value (NQO1 knockout mice [1]) is given as “hair hardly grew until day 18 after hair removal”, the “patients in whom the agent causes CIA” value (patients) is given as no less than 60% and the “acetylation of p53 in skin tissue” value (p53) is given as “increased”. For the same compound, the “Sirt1 activity in skin tissue” value (Sirt1) was “decreased”, the “NAD^+ concentration in skin tissue” value (NAD^+) was “decreased” and the “NAD^+/NADH ratio in skin tissue” value (NAD^+) was “decreased”. The “expression level of Sirt1 protein in skin tissue” value (Sirt1 protein) was “decreased”, the “development of hair follicles and inner root sheaths (histology)” value (NQO1 knockout mice [2]) was “the hair follicles have poorly developed or the inner root sheaths have insufficiently developed” and the “development of hair follicles and inner root sheaths (histology)” value [3] was “the hair follicles have poorly developed or the inner root sheaths have insufficiently developed”. For the same compound, the “acetylation of NF-κB p65 in skin tissue” value (NF-κB p65) was “increased”.
